Laboratory results taken from ChEMBL document CHEMBL5715954, “Silencing c-Myc translation as a therapeutic strategy through targeting PI3Kδ and CK1ε in hematological malignancies” (Blood, 2017).

Assays:
Parameters in all cases: scale not given: the % may be the effect or the level left
[1] = target: Calcium/calmodulin-dependent protein kinase kinase 1 (Homo sapiens) (UniProt Q8N5S9); assay: Inhibition of human CAMKK1 assessed as enzyme activity at 1 uM using myelin basic protein as substrate preincubated for 20 mins followed by [gamma-33P]-ATP addition and measured after 120 mins by radiometric Hot-SpotSM Kinase assay relative to control
[2] = target: Proto-oncogene tyrosine-protein kinase receptor Ret (Homo sapiens) (UniProt P07949); assay: Inhibition of human RET assessed as enzyme activity at 1 uM using RRRRRRRRRRRVYSTDYYRLFNPS as substrate preincubated for 20 mins followed by [gamma-33P]-ATP addition and measured after 120 mins by radiometric Hot-SpotSM Kinase assay relative to control
[3] = target: Serine/threonine-protein kinase PLK1 (Homo sapiens) (UniProt P53350); assay: Inhibition of human PLK1 assessed as enzyme activity at 1 uM using casein as substrate preincubated for 20 mins followed by [gamma-33P]-ATP addition and measured after 120 mins by radiometric Hot-SpotSM Kinase assay relative to control
[4] = target: Ribosomal protein S6 kinase beta-2 (Homo sapiens) (UniProt Q9UBS0); assay: Inhibition of human p70S6Kb assessed as enzyme activity at 1 uM using KKRNRTLTK as substrate preincubated for 20 mins followed by [gamma-33P]-ATP addition and measured after 120 mins by radiometric Hot-SpotSM Kinase assay relative to control
[5] = target: SRSF protein kinase 2 (Homo sapiens) (UniProt P78362); assay: Inhibition of human SRPK2 assessed as enzyme activity at 1 uM using GRSRSRSRSR as substrate preincubated for 20 mins followed by [gamma-33P]-ATP addition and measured after 120 mins by radiometric Hot-SpotSM Kinase assay relative to control
[6] = target: Tyrosine-protein kinase Lck (Homo sapiens) (UniProt P06239); assay: Inhibition of human LCK assessed as enzyme activity at 1 uM using poly[Glu:Tyr] (4:1) as substrate preincubated for 20 mins followed by [gamma-33P]-ATP addition and measured after 120 mins by radiometric Hot-SpotSM Kinase assay relative to control
[7] = target: T1, cGMP-dependent protein kinase 1 (Homo sapiens) (UniProt Q13976); assay: Inhibition of human PKG1a assessed as enzyme activity at 1 uM using LRRASLG as substrate preincubated for 20 mins followed by [gamma-33P]-ATP addition and measured after 120 mins by radiometric Hot-SpotSM Kinase assay relative to control
T1 sequence (whole entry): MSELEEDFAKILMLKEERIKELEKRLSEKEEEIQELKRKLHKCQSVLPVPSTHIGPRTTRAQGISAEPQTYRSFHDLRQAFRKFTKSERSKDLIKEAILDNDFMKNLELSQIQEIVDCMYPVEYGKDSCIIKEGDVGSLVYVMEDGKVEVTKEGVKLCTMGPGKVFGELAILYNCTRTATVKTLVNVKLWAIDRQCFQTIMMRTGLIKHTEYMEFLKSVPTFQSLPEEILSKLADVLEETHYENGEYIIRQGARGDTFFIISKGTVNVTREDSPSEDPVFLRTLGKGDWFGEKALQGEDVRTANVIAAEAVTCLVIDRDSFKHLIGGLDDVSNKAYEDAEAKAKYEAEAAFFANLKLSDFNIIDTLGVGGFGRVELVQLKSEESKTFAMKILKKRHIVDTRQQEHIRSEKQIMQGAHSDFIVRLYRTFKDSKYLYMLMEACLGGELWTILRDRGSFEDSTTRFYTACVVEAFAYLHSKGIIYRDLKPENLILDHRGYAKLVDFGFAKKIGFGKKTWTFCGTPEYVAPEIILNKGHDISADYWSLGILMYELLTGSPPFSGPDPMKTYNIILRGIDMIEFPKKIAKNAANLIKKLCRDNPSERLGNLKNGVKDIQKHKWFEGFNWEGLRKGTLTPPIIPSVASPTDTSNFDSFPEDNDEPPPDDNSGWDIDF

[8] = target: Serine/threonine-protein kinase PAK 6 (Homo sapiens) (UniProt Q9NQU5); assay: Inhibition of human PAK6 assessed as enzyme activity at 1 uM using RRRLSFAEPG as substrate preincubated for 20 mins followed by [gamma-33P]-ATP addition and measured after 120 mins by radiometric Hot-SpotSM Kinase assay relative to control
[9] = target: T2, Aurora kinase A (Homo sapiens) (UniProt O14965); assay: Inhibition of human Aurora A assessed as enzyme activity at 1 uM using H-LRRASLG as substrate preincubated for 20 mins followed by [gamma-33P]-ATP addition and measured after 120 mins by radiometric Hot-SpotSM Kinase assay relative to control
T2 sequence (whole entry): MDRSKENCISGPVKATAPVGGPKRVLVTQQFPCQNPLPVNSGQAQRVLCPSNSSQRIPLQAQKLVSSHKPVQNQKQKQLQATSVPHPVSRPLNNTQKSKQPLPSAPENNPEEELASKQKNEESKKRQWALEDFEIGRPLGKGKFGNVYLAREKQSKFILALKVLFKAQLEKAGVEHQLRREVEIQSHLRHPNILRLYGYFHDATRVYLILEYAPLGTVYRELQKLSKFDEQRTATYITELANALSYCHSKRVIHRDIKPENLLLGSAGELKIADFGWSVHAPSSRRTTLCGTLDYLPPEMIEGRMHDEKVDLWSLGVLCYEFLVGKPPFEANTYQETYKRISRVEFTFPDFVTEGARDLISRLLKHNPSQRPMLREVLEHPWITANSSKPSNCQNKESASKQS

[10] = target: Calcium/calmodulin-dependent protein kinase type 1G (Homo sapiens) (UniProt Q96NX5); assay: Inhibition of human CAMK1g assessed as enzyme activity at 1 uM using KKALRRQETVDAL as substrate preincubated for 20 mins followed by [gamma-33P]-ATP addition and measured after 120 mins by radiometric Hot-SpotSM Kinase assay relative to control
[11] = target: T3, Calcium/calmodulin-dependent protein kinase type IV (Homo sapiens) (UniProt Q16566); assay: Inhibition of human CAMK4 assessed as enzyme activity at 1 uM using KKLNRTLSFAEPG as substrate preincubated for 20 mins followed by [gamma-33P]-ATP addition and measured after 120 mins by radiometric Hot-SpotSM Kinase assay relative to control
T3 sequence (whole entry): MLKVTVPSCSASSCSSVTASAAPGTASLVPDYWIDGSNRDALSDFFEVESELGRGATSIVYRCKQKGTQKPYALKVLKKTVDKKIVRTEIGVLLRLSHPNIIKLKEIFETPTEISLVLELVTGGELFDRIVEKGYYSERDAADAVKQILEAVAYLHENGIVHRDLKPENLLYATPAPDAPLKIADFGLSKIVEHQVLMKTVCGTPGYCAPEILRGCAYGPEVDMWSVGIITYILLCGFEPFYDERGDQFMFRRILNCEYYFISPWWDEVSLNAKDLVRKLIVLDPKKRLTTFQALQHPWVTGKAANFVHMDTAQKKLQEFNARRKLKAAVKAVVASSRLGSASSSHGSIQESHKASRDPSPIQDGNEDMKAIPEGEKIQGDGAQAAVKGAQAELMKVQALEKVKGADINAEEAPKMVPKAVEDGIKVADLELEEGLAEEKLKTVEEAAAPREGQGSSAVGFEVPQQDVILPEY

Ribosomal protein S6 kinase beta-2 (Homo sapiens), sequence (Q9UBS0 whole entry): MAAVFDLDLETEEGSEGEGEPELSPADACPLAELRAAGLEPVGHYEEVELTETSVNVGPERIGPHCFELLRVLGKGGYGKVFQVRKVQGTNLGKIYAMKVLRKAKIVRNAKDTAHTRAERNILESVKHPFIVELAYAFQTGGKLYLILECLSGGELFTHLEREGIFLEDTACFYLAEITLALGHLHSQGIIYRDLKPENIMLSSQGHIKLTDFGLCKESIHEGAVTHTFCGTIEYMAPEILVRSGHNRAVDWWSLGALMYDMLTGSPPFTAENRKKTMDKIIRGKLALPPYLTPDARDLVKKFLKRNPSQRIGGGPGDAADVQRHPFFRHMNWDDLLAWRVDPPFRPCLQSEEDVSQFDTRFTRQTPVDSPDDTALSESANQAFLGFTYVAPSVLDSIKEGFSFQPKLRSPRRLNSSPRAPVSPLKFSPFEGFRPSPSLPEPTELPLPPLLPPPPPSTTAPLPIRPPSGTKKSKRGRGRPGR
Calcium/calmodulin-dependent protein kinase type 1G (Homo sapiens), sequence (Q96NX5 whole entry): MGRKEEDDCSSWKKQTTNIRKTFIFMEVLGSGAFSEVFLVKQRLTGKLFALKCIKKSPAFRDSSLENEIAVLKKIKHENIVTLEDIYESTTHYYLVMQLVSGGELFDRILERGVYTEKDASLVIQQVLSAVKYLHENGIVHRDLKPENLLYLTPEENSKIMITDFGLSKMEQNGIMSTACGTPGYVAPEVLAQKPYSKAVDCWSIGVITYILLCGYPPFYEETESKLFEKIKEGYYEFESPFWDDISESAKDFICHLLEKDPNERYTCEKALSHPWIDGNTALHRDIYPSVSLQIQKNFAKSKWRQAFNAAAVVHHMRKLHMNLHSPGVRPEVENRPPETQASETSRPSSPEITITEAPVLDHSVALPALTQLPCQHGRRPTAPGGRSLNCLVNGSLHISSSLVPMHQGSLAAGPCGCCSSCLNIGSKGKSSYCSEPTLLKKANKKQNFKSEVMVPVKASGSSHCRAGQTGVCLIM
SRSF protein kinase 2 (Homo sapiens), sequence (P78362 whole entry, looked up): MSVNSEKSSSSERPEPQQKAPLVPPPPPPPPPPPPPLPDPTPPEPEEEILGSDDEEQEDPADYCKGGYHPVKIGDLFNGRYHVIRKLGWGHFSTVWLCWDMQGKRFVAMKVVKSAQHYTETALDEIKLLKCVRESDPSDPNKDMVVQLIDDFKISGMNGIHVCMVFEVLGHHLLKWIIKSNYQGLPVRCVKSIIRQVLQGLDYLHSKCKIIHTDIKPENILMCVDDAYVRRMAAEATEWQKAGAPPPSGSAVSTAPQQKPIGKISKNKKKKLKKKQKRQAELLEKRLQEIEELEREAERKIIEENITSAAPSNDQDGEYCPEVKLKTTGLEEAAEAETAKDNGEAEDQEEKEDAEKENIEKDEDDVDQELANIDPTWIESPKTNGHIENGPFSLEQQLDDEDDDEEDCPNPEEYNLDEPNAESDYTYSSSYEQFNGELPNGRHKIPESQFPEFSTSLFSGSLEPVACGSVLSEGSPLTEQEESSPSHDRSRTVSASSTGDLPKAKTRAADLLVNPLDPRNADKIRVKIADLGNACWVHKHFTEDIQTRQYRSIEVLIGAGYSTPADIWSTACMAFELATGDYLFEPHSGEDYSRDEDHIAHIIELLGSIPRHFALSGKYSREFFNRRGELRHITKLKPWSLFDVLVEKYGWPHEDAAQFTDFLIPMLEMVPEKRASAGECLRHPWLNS
Tyrosine-protein kinase Lck (Homo sapiens), sequence (P06239 2-509 limits assumed): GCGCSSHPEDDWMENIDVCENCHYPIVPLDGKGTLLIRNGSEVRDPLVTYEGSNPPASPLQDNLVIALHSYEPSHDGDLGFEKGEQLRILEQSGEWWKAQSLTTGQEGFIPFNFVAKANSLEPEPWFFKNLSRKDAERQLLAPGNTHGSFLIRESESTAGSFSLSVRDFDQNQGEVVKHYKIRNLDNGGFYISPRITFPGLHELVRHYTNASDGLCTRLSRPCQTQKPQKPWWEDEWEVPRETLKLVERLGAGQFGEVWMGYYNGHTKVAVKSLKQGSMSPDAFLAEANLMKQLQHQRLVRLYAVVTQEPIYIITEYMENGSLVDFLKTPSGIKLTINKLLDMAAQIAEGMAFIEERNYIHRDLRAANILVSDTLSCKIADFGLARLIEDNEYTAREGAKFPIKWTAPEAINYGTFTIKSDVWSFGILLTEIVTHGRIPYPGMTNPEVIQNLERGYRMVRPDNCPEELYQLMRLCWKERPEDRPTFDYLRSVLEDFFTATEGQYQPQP
Serine/threonine-protein kinase PAK 6 (Homo sapiens), sequence (Q9NQU5 whole entry, looked up): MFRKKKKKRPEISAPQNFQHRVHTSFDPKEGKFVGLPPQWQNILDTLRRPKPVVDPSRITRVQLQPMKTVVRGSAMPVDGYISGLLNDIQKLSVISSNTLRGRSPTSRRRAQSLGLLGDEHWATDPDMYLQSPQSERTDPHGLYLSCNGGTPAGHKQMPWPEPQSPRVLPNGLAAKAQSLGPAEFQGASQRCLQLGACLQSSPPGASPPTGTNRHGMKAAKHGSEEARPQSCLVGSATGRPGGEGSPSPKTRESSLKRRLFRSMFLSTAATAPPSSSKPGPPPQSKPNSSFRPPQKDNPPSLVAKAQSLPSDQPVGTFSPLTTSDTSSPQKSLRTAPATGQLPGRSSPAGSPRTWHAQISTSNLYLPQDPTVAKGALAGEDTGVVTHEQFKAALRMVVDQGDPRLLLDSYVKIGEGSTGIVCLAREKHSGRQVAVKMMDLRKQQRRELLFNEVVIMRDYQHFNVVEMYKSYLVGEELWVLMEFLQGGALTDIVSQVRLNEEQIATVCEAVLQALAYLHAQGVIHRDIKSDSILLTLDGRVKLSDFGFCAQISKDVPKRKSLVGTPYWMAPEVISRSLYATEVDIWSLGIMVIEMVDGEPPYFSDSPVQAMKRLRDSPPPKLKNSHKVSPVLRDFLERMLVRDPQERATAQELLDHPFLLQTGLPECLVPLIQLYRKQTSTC
Proto-oncogene tyrosine-protein kinase receptor Ret (Homo sapiens), sequence (P07949 whole entry): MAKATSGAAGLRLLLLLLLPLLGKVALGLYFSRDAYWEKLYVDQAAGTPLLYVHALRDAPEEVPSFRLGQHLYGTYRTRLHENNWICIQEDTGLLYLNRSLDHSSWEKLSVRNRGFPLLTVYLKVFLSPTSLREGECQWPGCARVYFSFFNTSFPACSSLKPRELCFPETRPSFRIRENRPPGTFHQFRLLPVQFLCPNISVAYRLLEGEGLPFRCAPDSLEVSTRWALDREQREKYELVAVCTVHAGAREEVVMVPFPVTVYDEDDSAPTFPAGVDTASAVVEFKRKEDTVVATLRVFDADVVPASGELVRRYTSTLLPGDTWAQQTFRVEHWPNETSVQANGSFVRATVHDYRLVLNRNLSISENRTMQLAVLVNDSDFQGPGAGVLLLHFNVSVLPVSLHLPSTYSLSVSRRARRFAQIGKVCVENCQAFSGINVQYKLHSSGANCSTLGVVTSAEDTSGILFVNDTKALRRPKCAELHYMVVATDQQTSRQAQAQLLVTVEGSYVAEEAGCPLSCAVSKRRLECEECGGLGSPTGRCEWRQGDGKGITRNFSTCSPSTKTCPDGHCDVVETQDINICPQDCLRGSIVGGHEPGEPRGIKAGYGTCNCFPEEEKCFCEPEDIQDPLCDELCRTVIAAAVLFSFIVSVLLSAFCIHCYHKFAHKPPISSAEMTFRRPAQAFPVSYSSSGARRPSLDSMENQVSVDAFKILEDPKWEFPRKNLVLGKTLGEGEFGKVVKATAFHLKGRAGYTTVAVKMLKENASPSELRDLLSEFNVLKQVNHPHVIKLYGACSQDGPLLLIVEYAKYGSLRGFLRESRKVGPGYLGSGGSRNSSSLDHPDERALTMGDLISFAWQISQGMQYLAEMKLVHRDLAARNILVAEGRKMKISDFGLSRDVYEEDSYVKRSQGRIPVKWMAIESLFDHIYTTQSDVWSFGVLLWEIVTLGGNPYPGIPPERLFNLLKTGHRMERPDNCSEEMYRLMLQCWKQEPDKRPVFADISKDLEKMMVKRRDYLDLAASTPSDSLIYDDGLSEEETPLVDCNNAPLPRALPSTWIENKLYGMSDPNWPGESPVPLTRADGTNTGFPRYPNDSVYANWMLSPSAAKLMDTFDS
Serine/threonine-protein kinase PLK1 (Homo sapiens), sequence (P53350 whole entry): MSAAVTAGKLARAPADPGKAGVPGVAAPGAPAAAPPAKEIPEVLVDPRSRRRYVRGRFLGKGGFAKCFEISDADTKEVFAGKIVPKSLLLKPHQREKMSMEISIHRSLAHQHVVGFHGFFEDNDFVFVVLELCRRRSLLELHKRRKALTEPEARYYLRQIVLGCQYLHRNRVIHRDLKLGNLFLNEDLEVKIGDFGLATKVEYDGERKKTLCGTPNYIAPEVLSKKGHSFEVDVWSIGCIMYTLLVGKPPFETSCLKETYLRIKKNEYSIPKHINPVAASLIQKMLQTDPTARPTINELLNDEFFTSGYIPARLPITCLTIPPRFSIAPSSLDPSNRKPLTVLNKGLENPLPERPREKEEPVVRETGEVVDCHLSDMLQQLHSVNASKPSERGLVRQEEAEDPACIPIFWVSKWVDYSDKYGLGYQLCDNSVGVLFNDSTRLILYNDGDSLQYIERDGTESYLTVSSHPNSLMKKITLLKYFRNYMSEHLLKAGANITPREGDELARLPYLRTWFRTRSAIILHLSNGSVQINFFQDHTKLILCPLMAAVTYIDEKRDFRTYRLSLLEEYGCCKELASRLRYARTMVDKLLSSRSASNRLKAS

SMILES	Activity [1]	Activity [2]	Activity [3]	Activity [4]	Activity [5]	Activity [6]	Activity [7]	Activity [8]	Activity [9]	Activity [10]	Activity [11]
CC[C@H](Nc1ncnc2[nH]cnc12)c1nc2cccc(F)c2c(=O)n1-c1ccccc1	105%	98.6%	95.4%	104%	91.3%	88.5%	105%	102%	104%	102%	82.5%
CC(C)Oc1ccc(-c2nn([C@@H](C)c3oc4ccc(F)cc4c(=O)c3-c3cccc(F)c3)c3ncnc(N)c23)cc1F [UMBRALISIB]	102%	99.9%	98.4%	105%	86%	96.8%	105%	97.2%	99.5%	98.9%	75.4%
C[C@H](Nc1ncnc2nc[nH]c12)c1cc2cccc(Cl)c2c(=O)n1-c1ccccc1	98.1%	97.7%	94%	96.8%	92.3%	94.7%	109%	99.5%	96.8%	99.1%	80.7%
